Columns and labels:
[1] = cited from earlier work
From the text: The host appears to protect its own cells from LL-37 cytotoxicity by several mechanisms.

[2] = tested on: human endothelial cells; conditions: cited from earlier work
From the text: (§1) The host appears to protect its own cells from LL-37 cytotoxicity by several mechanisms. […] In addition, the C1q globular head receptor (gC1qR, also known as p33) protects ...

[3] = Circular dichroism: secondary structure with and without bacterial lipid vesicles; format: physicochemical; conditions: far-UV CD, 25°C, 5 mM Tris-HCl, 150 mM NaCl pH 7.4; 100 µg/ml LL-37, 75 µg/ml SP-A or rfhSP-A; mixture compared with sum of individual spectra
Protocol: Circular dichroism (CD) spectra were obtained on a Jasco J-715 spectropolarimeter fitted with a 150 W xenon lamp ([38]). Quartz cells with a 0.1 cm optical path length were used, and the spectra were recorded in the far-UV region (190-260 nm) with a scanning speed of 50 nm/minute at 25°C. Four scans were accumulated and averaged for each spectrum. The acquired spectra were corrected by subtracting the appropriate blanks, subjected to noise reduction analysis, and presented as molar ellipticities (degrees cm2 dmol-1) assuming 110 Da as the average molecular mass per amino acid residue. At least three independent preparations of LL-37, SP-A, and rfhSP-A were measured. Spectra Manager Software (Jasco version 1.53) was used.
Two types of lipid vesicles were used: vesicles mimicking the bacterial cell wall (Re-LPS/BPL at a ratio of 08:02 by weight), and vesicles of bacterial inner membrane phospholipids (BPL). The final concentrations were 100 μg/ml (22.2 μM) for LL-37, 75 μg/ml (0.11 μM) for SP-A, and 75 μg/ml (1.3 μM) for rfhSP-A, in a final volume of 200 μl of 5 mM Tris-HCl, NaCl 150 mM, pH 7.4 buffer.
Vesicles mimicking the inner membrane of Gram-negative bacteria were prepared by mixing POPE, POPG, and CL at weight ratios of 67:23:10. […]

[4] = tested on: nontypeable Haemophilus influenzae; assay: Bacterial killing assay, NTHi; conditions: 10^5 CFU/ml, PBS + 1% TSB, 1 h 37°C; SP-A 0.025 µM, rfhSP-A 0.15 µM; increasing LL-37
Protocol: (§2) Klebsiella pneumoniae 52145 (serotype K2:O1), nontypeable Haemophilus influenzae strain 375 (NTHi), and P. aeruginosa (PAO1) are clinical isolates, as previously described ([40]–[42]). P. aeruginosa, and K. pneumoniae K2 were grown in Luria–Bertani (LB) broth at 37°C with continuous shaking to the exponential phase. Frozen stocks of NTHi strains were thawed and then grown on chocolate agar plates during 18 h at 37°C in a humidified 5% CO2 atmosphere. Then, NTHi were grown to the exponential phase on brain heart infusion broth (BHI) supplemented with 10 µg/ml hemin and 10 µg/ml β-nicotinamide adenine dinucleotide (β-NAD) (sBHI) with continuous shaking at 37°C in a humidified 5% CO^2 atmosphere. Exponential-phase bacteria were then harvested by centrifugation at 500 g for 10 min, resuspended in PBS, and adjusted to the desired final concentration, as described in ([24]).
(§3) The microbicidal activity of LL-37 in the presence of SP-A or rfhSP-A was evaluated by colony counts on plate assays ([24], [25]). […] Viable bacteria were enumerated by colony count and results were expressed as a percentage of relative survival in comparison to untreated bacteria.

[5] = tested on: K. pneumoniae; assay: Bacterial membrane permeabilization, Sytox Green; format: cell-based, Klebsiella pneumoniae; conditions: 2.2 µM LL-37, 0.075 µM SP-A, 0.4 µM rfhSP-A, PBS pH 7.4, 37°C; three independent experiments
Protocol: The ability of LL-37, SP-A, rfhSP-A, and combinations thereof to permeabilize the outer and cytoplasmic bacterial membranes was studied in live bacteria by quantifying the internalization of the impermeant fluorescent Sytox Green, since its fluorescence increases when binding to bacterial DNA. For the measurement of Sytox Green influx, the probe (1 μM) was added to 1 ml of bacterial suspension (2x10^7 CFU/ml) in PBS and the sample was incubated for 15 min in darkness at room temperature as described in ([25]). Then, the fluorescence of the Sytox Green/bacterial suspension mixture was monitored for 4 hours in a FLUOstar Omega microplate reader (BMG LabTechnologies, Ortenberg, Germany) at excitation and emission wavelengths of 485 and 520 nm, respectively. PBS was used as a negative control, whereas ethanol (70%) was used as a positive control. Background fluorescence was measured in non-labeled bacteria.

[6] = tested on: K. pneumoniae K2; assay: Transmission electron microscopy of bacteria; format: cell-based, Klebsiella pneumoniae; conditions: LL-37 55.5 µM, SP-A 0.3 µM, rfhSP-A 1.5 µM, 30 min 37°C PBS; TEM
Protocol: The effect of LL-37, SP-A, rfhSP-A, and combinations thereof on the ultrastructure of K. pneumoniae was visualized by means of transmission electron microscopy, as described in ([25]). […] Cells were spun down and PBS medium was removed. Cell pellets were then chemically fixed with 4% paraformaldehyde and 2.5% glutaraldehyde for 4 h at 4°C and washed three times with PBS. Next, bacteria were post-fixed with 1% osmium tetroxide for 1 h. Samples were then washed thrice with bi-distilled water and dehydrated using sequential exposure to acetone concentrations ranging from 30% to 100% for 15 min at room temperature. Next, infiltration and embedding were performed using Spurr’s resin. The samples were sectioned using an ultramicrotome with a diamond knife and were mounted on copper grids. Samples were examined on a JEOL JEM 1010 electron microscope (JEOL, Tokyo, Japan).

[7] = tested on: A549 cells; assay: LL-37-induced IL-8 secretion (ELISA); format: cell-based, human; conditions: A-438079 10 µM, 15 min pre-treatment; LL-37 15 µM, 24 h
Protocol: A549 cells were seeded to a density of 50,000 cells per well in a 96-well tissue culture plate for 18 h in RPMI 1640 medium supplemented with antibiotics, 2 mM L-glutamine, and 5% FBS.
Secreted IL-8 was quantified in supernatants of A549 cells by ELISA (R&D Systems) following the supplier instructions. Briefly, anti-human IL-8 was coated on a 96-well Nunc-Immuno Plate MaxiSorp Surface (Thermo Scientific, Waltham, MA) in PBS overnight. After blocking with PBS and 10% FBS, and extensive washing, samples and standards were incubated for 2 h at room temperature. IL-8 cytokine was detected with biotinylated detection antibody and streptavidin-HRP. The colorimetric reaction was developed with tetramethylbenzidine (BD Biosciences, San Diego, CA) and was stopped with 4 M sulfuric acid. The absorbance at 450 nm was read on an ELISA reader (RT-6100 plate reader, Rayto Life and Analytical Sciences, Shenzhen, China).

[8] = tested on: P. aeruginosa; assay: Bacterial killing assay, P. aeruginosa; conditions: 10^5 CFU/ml, PBS, 1 h 37°C; SP-A 0.012 µM, rfhSP-A 0.075 µM; increasing LL-37
Protocol: as §2, §3

[9] = tested on: alveolar epithelial cells; conditions: cited from earlier work
From the text: as §1

[10] = tested on: influenza A virus; conditions: cited from earlier work
From the text: as §1

[11] = LPS vesicle aggregation assay (turbidity, DLS); format: biochemical, Salmonella enterica serotype Minnesota; conditions: Re-LPS/BPL 50 µg/ml, 75 nM SP-A, 1.1 µM LL-37, 0.43 µM rfhSP-A, 37°C
Protocol: Vesicles mimicking the inner membrane of Gram-negative bacteria were prepared by mixing POPE, POPG, and CL at weight ratios of 67:23:10. Alternatively, vesicles mimicking bacterial outer membrane were prepared by adding ReLPS to the POPE/POPG/CL mixture (BPL, bacterial phospholipids) at a weight ratio of 8:2, as previously reported ([25]). Multilamellar vesicles and large unilamellar vesicles of DPPC and surfactant-like vesicles composed of DPPC, POPG, and palmitic acid (PA) (at weight ratios of 23:10:1.6) were prepared as previously reported ([28], [33]–[35], [39]).
Turbidity measurements: The effects of SP-A, rfhSP-A, and calcium on the aggregation of LPS vesicles that mimic bacterial outer membranes were studied in the absence and presence of LL-37 by measuring the change in absorbance at 400 nm in a Beckman DU-800 spectrophotometer ([28], [39]). Briefly, LPS vesicles (50 μg/ml) were added to both the sample and the reference cuvettes in 5 mM Tris-HCl and 150 mM NaCl 0.1 mM EDTA buffer, pH 7.4. After 10 min equilibration at 37°C, either human SP-A, rfhSP-A, LL-37, or combinations thereof was added to the sample cuvette, and the change in optical density at 400 nm was monitored. Next, 2.5 mM Ca^2+ was added to both the sample and reference cuvettes, and the change in absorbance was monitored again. Aggregation of surfactant phospholipid vesicles was performed in the same way. […]

[12] = tested on: K. pneumoniae K2; assay: Bacterial killing assay, K. pneumoniae; conditions: 10^5 CFU/ml, PBS, 1 h 37°C; SP-A 0.11 µM, rfhSP-A 0.7 µM; increasing LL-37; CFU counting
Protocol: as §2, §3

In the case of “apolipoprotein A-I: HDL apolipoprotein A-I”, the “effect on antimicrobial activity of LL-37” value [1] is given as “reduces the antimicrobial activity of LL-37” and the “effect on LL-37 cytotoxicity on human endothelial cells” value [2] is given as “reduces the cytotoxicity of LL-37 on human endothelial cells”.
For “SP-A: Human surfactant protein A isolated from bronchoalveolar lavage fluid of patients with alveolar proteinosis”, the “CD spectrum / change in α-helical content” value [3] was “marked decrease of negative ellipticity without any shift of the minimum at 207 nm”, the “effect on antibacterial activity of LL-37 against NTHi” value [4] was “neither SP-A nor rfhSP-A modifies the antibacterial activity of LL-37” and the “Sytox Green permeabilization of K. pneumoniae” value [5] was “did not affect the fluorescence of the dye”. For the same compound, the “effect on ultrastructure of K. pneumoniae” value [6] was “did not cause any perturbation of the bacterial cell wall”, the “IL-8 release, A549, with P2X7 inhibitor” value [7] was “not observed in the presence of the P2X7 inhibitor” and the “effect on antibacterial activity of LL-37 against P. aeruginosa” value [8] was “neither SP-A nor rfhSP-A modifies the antibacterial activity of LL-37”. The “effect on human β-defensin 3 cytotoxicity on alveolar epithelial cells” value [9] was “reduced cytotoxicity on alveolar epithelial cells”, the “antiviral activity against influenza A virus, LL-37 with SP-A” value [10] was “additive antiviral activity against influenza A virus” and the “LPS vesicle aggregation (scattered light), with calcium” value ([11]; 2.5 mM Ca2+, pH 7.4) was “greatly increased”. The “LPS vesicle turbidity (400 nm), no calcium” value ([11]; pH 7.4, before Ca2+) was “did not affect sample turbidity” and the “effect on antibacterial activity of LL-37 against K. pneumoniae” value [12] was “neither SP-A nor rfhSP-A modifies the antibacterial activity of LL-37”.
With `Clc1cccc(-c2nnnn2Cc2cccnc2)c1Cl` [A-438079, reference compound] the “IL-8 release, A549, with P2X7 inhibitor” value [7] was “decreased LL-37-induced IL-8 secretion”.

Source: article PMC9464622, “The collectin SP-A and its trimeric recombinant fragment protect alveolar epithelial cells from the cytotoxic and proinflammatory effects of human cathelicidin in vitro” (Frontiers in Immunology, 2022)
